For 3 compounds, IC50 results are on record in patent US7932278B2, “2-aminoethoxyacetic acid derivatives and their use” (Bayer Schering Pharma Aktiengesellschaft, priority 2005, dated 2011).

The structures appear in SMILES notation. pIC50: −log10 of the molar value. Where a name gives a salt, the structure may show the parent alone.

human factor Xa (FXa), sequence (P00742 235-488 limits assumed): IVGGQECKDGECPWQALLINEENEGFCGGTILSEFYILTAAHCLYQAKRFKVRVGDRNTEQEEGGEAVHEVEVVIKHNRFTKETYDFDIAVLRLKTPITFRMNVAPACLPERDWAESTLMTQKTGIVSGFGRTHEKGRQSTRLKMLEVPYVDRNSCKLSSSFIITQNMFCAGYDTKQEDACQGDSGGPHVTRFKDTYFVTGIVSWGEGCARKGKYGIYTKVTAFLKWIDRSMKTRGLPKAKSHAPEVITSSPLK
human factor Xa (FXa), sequence (P00742 41-179 partner limits assumed): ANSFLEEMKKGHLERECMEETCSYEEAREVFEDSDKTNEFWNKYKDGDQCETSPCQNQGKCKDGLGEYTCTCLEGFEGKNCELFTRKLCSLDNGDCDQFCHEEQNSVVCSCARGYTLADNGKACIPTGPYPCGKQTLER

The assay concerns the target human factor Xa (FXa) (Homo sapiens, UniProt P00742). The experiment in a line: Determination of the factor Xa inhibition (chromogenic substrate). It counts as biochemical. The note with it: human FXa 0.5 nmol/l, 150 μmol/l Pefachrome FXa, 25° C., extinction at 405 nm. On the procedure:
a. 1) Determination of the Factor Xa Inhibition:
The enzymatic action of human factor Xa (FXa) is measured using the conversion of a chromogenic substrate specific for FXa. Factor Xa cleaves p-nitroaniline from the chromogenic substrate. The determinations are carried out in microtiter plates as follows:
The test substances, in various concentrations, are dissolved in DMSO and incubated for 10 minutes at 25° C. with human FXa (0.5 nmol/l dissolved in 50 mmol/l of tris buffer [C,C,C-tris(hydroxymethyl)aminomethane], 150 mmol/l of NaCl, 0.1% BSA [bovine serum albumin], pH=8.3). Pure DMSO is used as control. The chromogenic substrate (150 μmol/l Pefachrome® FXa from Pentapharm) is then added. After an incubation time of 20 minutes at 25° C., the extinction at 405 nm is determined.
Consider `O=C(O)COCCNc1ccc(N2C[C@H](CNC(=O)c3ccc(Cl)s3)OC2=O)cc1` [Example 1, 2-({4-[(5S)-5-({[(5-Chloro-2-thienyl)carbonyl]amino}methyl)-2-oxo-1,3-oxazolidin-3-yl]phenyl}-amino)ethoxy]acetic acid hydrochloride], for which the pIC50 was 7.49. Compound `O=C(O)COCCN(C(=O)c1ccc(Cl)s1)c1ccc(N2C[C@H](CNC(=O)c3ccc(Cl)s3)OC2=O)cc1` [Example 3, [2-([(5-Chloro-2-thienyl)carbonyl]{4-[(5S)-5-({[(5-chloro-2-thienyl)carbonyl]amino}methyl)-2-oxo-1,3-oxazolidin-3-yl]phenyl}amino)ethoxy]acetic acid] had a negative-log IC50 (pIC50) of 7.18.

`CC(C)CNC(=O)N(CCOCC(=O)O)c1ccc(N2C[C@H](CNC(=O)c3ccc(Cl)s3)OC2=O)cc1` [Example 4, {2-[{4-[(5S)-5-({[(5-Chloro-2-thienyl)carbonyl]amino}methyl)-2-oxo-1,3-oxazolidin-3-yl]phenyl}-(isobutylcarbamoyl)amino]ethoxy}acetic acid] showed a pIC50 of 7.23.
